Results reported in PMC10824666 (Nature Cancer, 2023).
Like-named read-outs stand apart in the source and are kept apart here.

Target: T1, TBK1 (Homo sapiens, UniProt Q9UHD2)
T1 sequence (Q9UHD2 1-729): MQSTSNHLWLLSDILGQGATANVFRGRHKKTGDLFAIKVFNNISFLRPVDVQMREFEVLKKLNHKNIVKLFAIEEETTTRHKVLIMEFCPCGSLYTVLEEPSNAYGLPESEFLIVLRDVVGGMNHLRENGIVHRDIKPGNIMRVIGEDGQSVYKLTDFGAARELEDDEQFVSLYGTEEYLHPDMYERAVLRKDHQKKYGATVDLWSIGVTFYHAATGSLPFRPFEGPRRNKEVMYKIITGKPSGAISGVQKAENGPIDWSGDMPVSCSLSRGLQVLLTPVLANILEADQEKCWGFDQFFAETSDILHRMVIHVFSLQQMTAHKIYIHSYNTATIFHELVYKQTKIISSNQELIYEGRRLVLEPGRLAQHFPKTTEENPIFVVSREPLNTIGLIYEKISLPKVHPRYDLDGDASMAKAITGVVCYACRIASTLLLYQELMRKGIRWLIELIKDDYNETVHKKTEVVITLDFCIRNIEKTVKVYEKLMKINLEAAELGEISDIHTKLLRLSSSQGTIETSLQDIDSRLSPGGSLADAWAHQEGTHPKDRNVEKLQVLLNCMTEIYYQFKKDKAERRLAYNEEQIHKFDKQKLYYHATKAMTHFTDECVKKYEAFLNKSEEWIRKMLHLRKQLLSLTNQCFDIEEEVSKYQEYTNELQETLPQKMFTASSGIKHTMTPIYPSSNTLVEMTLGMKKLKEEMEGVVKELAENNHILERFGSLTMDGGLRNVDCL
Assay: biochemical
Design: Eurofins DiscoverX kinase panel, competitive binding assay at 1 uM, percent of DMSO control
Details: competitive binding, percent of DMSO control
Outline: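 Competitive binding assay across a 96-kinase panel with KIF18A compounds at 1 µM; values given as percentage of control (POC), single experiment.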

## CC(C)(C)NS(=O)(=O)c1cccc(NC(=O)c2ccc(S(=O)(=O)NC(C)(C)C)cc2N2CCC3(CC2)CC3)c1 [AM-1882]
read-out: Kinome Profiling performed by Eurofins DiscoverX / AM-1882, 1.0 µM / POC
  remaining activity at 1 µM: 82%

## CC(C)(CO)Nc1ccc(C(=O)Nc2cccc(S(=O)(=O)C3CCCC3)c2)c(N2CCC3(CC2)CC3)n1 [AM-0277]
read-out: Kinome Profiling performed by Eurofins DiscoverX / AM-0277, 1.0 µM / POC
  remaining activity at 1 µM: 87%

## C[C@@H]1CN(c2cccc(NC(=O)c3ccc(NS(=O)(=O)CCO)cc3N3CCC4(CC3)CC4)n2)CCO1 [AM-5308]
read-out: Kinome Profiling performed by Eurofins DiscoverX / AM-5308, 1.0 µM / POC
  remaining activity at 1 µM: 100%
